Counter-ions that a name gives are not always drawn.
Legend:
human MoGAT-2 [1] = biological target: T1, human MoGAT-2 (Homo sapiens, UniProt Q3SYC2); assay: Inhibitory Activity in MOGAT-2 Cell Assay (Caco-2 cells stably transfected with human MoGAT-2, HDG substrate, LC-MS); assay type: cell-based; design: expressed in transfected cells; settings: Caco-2 cells expressing human MoGAT-2; 4 hours treatment with HDG/DOPC; read-out: C50 nM (Std Dev.; n*)
Experimental: The inhibitory activity of compounds against human MoGAT-2 in a cell environment is evaluated in this assay. Caco-2 is a human colon carcinoma cell line and is often used as a model for intestinal epithelial cells. […] The substrate is delivered to cells using as a mixture with DOPC in the form of sonicated vesicles. Seed the Caco2 cells onto 100 mm dishes to be 80% confluent after 24 hours in complete media (3/1 DMEM: F12+10% FBS+20 mM HEPES+gentamicin). Transfect the cells with hMoGAT-2 plasmid (MOGAT-2-pCDNA3.1-Hygro) using Lipofectamine 2000 (Invitrogen). After a 6 hour exposure to the transfection mixture, wash the cells three times in PBS and then add media. Incubate the cells for an additional 18 hours incubation, trypsinize the cells and serially dilute them into 100 mm dishes. Add complete media+400 μg/ml hygromycin and incubate until clones appear. Isolate and transfer the clones into 24 well dishes and grow to confluency. Prepare the RNAs from these clones using a Qiagen RNAeasy kit. Perform Taqman analysis using an ABI inventoried assay (HS00228262) on a 7900 Sequence Detection System (ABI). Analyze the lysates from these clones by Western blot analysis using a goat polyclonal antibody (Santa Cruz, SC-32392 to confirm human MoGAT-2 expression of a 38 kD protein corresponding to MoGAT-2. […] Add 20 ml of buffer (150 mM Tris-Cl pH 7.4, 250 mM sucrose, 1 mM EDTA) to the dried HDG/DOPC mixture while sonicating until the solution becomes clear. Plate the Caco2 cells into a poly-D-lysine coated 96-well plate (the “Cell Plate”) at 37° C., 5% CO2 overnight. […] Trypsinize the cells with 50 μl of trypsin solution and add 50 μl of PBS. Immediately freeze the cells on dry ice and store at -20° C. for LC-MS analysis. Extract the cells with chloroform/methanol as follows: transfer the cells to a 2 ml plate; wash the cell plate with 200 μL methanol and then transfer the methanol wash to the 2 ml plate; wash the cell plate again with 200 μL PBS and transfer the PBS wash to the 2 ml plate. Add chloroform (400 μL) with an internal standard (19.52 ng/mL) DAG (15:0,15:0 (Sigma)), D5-TAG (39.03 ng/mL) CDN (16,16,16) to the 2 mL Plate. Turn the sealed 2 mL Plate up and down (10×), then vortex and spin. Remove 400 μL of the lower layer from the 2 mL plate and add to the wells of another plate the “Final Plate”. Add CHCl3:MeOH (400 μL 2:1) to the 2 mL Plate. Again turn the sealed 2 mL Plate up and down (10×), vortex and spin. Remove 220 μL of the lower layer from the 2 mL Plate and add to the Final Plate. Dry the Final Plate and reconstitute with […] of IPA. […] Monitor the channels to collect data for the D5 C16 TAG internal standard as well as the ether TAG, and […] and […] natural TAGs. Solvent A is 80/20 H2O/Methanol with 20 μM ammonium acetate. Solvent B is 50/50 IPA/THF with 20 μM ammonium acetate. Flow rate is 0.4 mL/min Wash solvents are H2O/MeOH and DCM. Using Xcalibur software extract the areas of the peaks of interest, and export the data to Excel which uses the following formula: (area of ether TAG/area of […] natural TAG)/Area of IS. This ratio effectively accounts for variance of cell number in each well.

human MoGAT-2 [2] = biological target: T1, human MoGAT-2; assay: MOGAT-2 Inhibitory Assay (SF9 cell lysate, 14C-oleoyl-CoA, Microscint E extraction); assay type: biochemical; design: made in house; host or cells: insect SF9 cells (cell lysate supernatant); settings: human MoGAT-2 expressed in SF9 cells, cell extract; 90 minutes at room temperature
Experimental: The in vitro inhibitory activity of compounds against human MoGAT-2 is evaluated in this assay. MoGAT-2 transfers an oleoyl group to monooleoyl-glycerol (“MAG”) from oleoyl-CoA to form dioleoyl-glycerol (“DAG”) in the intestinal triglyceride resynthesis pathway. The assay takes advantage of Microscint E extraction, which extracts hydrophobic molecules selectively over hydrophilic ones to separate the ^14C-oleoyl-CoA from ^14C-DAG.
Genetically engineered insect SF9 cells express human MoGAT-2. Prepare the cell lysate in 20 mM of NaCl with protease inhibitor (Roche Cat#11873580001). Homogenize the SF9 cells expressing human MoGAT-2 at 15,000 rpm for 20×2 seconds (PT-3100 Polytrone). Centrifuge the homogenate at 1000 g for 10 minutes at 4° C. Collect the supernatant into a separate tube for protein quantification and activity testing. Purify the glycerol monooleate substrate (Spectrum Chemical, CAS#25496-72-4) chromatographically. Prepare the monoacylglyerol (MAG) substrate in phospholipid vescicles (dioleoyl phosphatidylcholine “DOPC”). Prepare the MAG/DOPC vesicles at 20 mM concentration of total lipids (MAG and DOPC). Prepare different molar ratios of MAG to total lipids for either compound screening (8.9%) or compound kinetic studies (2.6-40%). Mix the appropriate amount of purified MAG and DOPC (Avanti Polar Lipids #850375C) in chloroform in a glass tube. […]

[3] = test system: oil bolus-induced excursion of triglycerides in circulation; assay: Dog Oil Bolus Model; assay type: in vivo, dog (male beagles); settings: 10 mg/kg dose, olive oil bolus, plasma net TAG AUC, statistically significant (p<0.05)
Description: Inhibiting MoGAT-2 found in the small intestine may be useful for treating hypertriglyceridemia caused by excessive fat intake Inhibition of MoGAT-2 disrupts resynthesis of triglycerides, which reduces secretion of triglycerides from the intestine. Therefore, MoGAT-2 inhibition interferes with a specific process that leads to eventual secretion of triglycerides into the intestine for eventual circulation through the body. To assess the ability of one or more of the exemplified compounds to inhibit MoGAT-2 induced TAG secretion into the intestine as measured in the blood system, the following protocol can be followed:
Twenty one male beagles are enrolled for each study, each dog selected to have a body weight between 9-13 kg. […]
The analyte is the [M+NH4]+ ion of TAG 18:1 18:1 18:1, which has a mass of 902.8 m/z; the internal standard is D5 TAG 16:0 16:0 16:0, which has a mass of 829.8 m/z. […] The percent inhibition of plasma triglyceride is calculated as follows: the (oil bolus group mean of net TAG AUC−oil bolus group mean of net TAG AUC with compound treatment/oil bolus group mean of net TAG AUC)*100. […] The ability of exemplified compounds of the present invention to inhibit MoGAT-2 activity and reduce TAG absorption in vivo can be further evaluated according to this assay.

T1 sequence (Q3SYC2 whole entry): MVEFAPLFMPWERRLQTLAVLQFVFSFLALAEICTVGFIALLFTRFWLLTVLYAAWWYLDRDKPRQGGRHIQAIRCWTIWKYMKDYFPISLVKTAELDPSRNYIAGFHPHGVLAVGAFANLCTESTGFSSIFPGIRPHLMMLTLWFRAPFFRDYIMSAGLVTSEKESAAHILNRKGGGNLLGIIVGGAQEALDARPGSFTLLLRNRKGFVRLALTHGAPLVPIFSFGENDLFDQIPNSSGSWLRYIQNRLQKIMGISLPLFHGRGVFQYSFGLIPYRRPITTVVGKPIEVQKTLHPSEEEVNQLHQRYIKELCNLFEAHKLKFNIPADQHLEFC

Row | Structure (SMILES) | IC50 (human MoGAT-2 [1]) | other results
1 | C[C@@H](NS(C)(=O)=O)c1ccc(CNCC2COc3ccccc3N2)cc1 (single isomer, unassigned; isomer 2) [Example 14] | 479 nM | –
2 | C[C@@H](NS(C)(=O)=O)c1ccc(CNCC2COC(c3ccccc3)CO2)cc1 (single isomer, unassigned; isomer 2) [Example 29] | 294 nM | –
3 | C[C@@H](NS(C)(=O)=O)c1ccc(CNC[C@H]2COc3cccnc3O2)cc1.Cl [Example 2, N-{(1R)-1-[4-({[(3S)-2,3-Dihydro[1,4]dioxino[2,3-b]pyridin-3-ylmethyl]amino}methyl)phenyl]ethyl}methanesulfonamide hydrochloride] | – | reduction in TAG 18.1_18.1_18.1 [3]: 67%; reduction in total triglycerides [3]: 77%
4 | CS(=O)(=O)N[C@@H](c1ccc(CNCCN2CCc3ccccc3C2=O)cc1)C(F)(F)F [Example 31, N-{(1S)-2,2,2-Trifluoro-1-[4-({[2-(1-oxo-3,4-dihydroisoquinolin-2(1H)-yl)ethyl]amino}methyl)phenyl]ethyl}methanesulfonamide hydrochloride] | 266 nM | –

Second part, led by results:

Row | IC50 (human MoGAT-2 [1]) | Structure (SMILES) | other results
5 | 3.8 nM | CS(=O)(=O)N[C@@H](c1ccc(CNC[C@H]2COc3cccnc3O2)cc1)C(F)(F)F [Example 1, N-{(1S)-1-[4-({[(3S)-2,3-Dihydro[1,4]dioxino[2,3-b]pyridin-3-ylmethyl]amino}methyl)phenyl]-2,2,2-trifluoroethyl}methanesulfonamide hydrochloride] | IC50 (human MoGAT-2 [2]): 2.28 nM
6 | 105 nM | C[C@@H](NS(C)(=O)=O)c1ccc(CNC2CCN(c3ccccc3)C2)cc1 (single isomer, unassigned; isomer 2) [Example 19] | –

From patent US9416138B2, “Benzyl sulfonamide compounds useful as MoGAT-2 inhibitors” (Eli Lilly and Company, priority 2012, dated 2016)
